# Experimental data reported in patent US10294202B2, “Pyrrolidinones as herbicides” (FMC Corporation, priority 2013, dated 2019).
# Columns and labels:
# nutsedge, yellow = test: Test C pre-/postemergence herbicide test; assay type: in vivo, Cyperus esculentus
# Summary of the method: (§1)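 Visual rating, 0 (no effect) to 100 (complete control), versus untreated controls after 13 to 15 days in the greenhouse. Pre: seeds in loam/sand, sprayed at planting. Post: 1- to 4-leaf plants (2 to 18 cm) in peat-based mix. Compounds in non-phytotoxic solvent plus surfactant.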
# foxtail, giant = test: Test C pre-/postemergence herbicide test; assay type: in vivo, Setaria faberii
# Summary of the method: as §1
# rice = test: Test B flooded paddy test; assay type: in vivo, Oryza sativa; conditions: 500 g ai/ha, Flood; scale of 0 to 100 where 0 is no effect and 100 is complete control
# Summary of the method: (§2)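 Visual ratings from 0, meaning no effect, up to 100, meaning complete control, were made by comparison with untreated controls 13 to 15 days after treatment. Test compounds went straight into floodwater standing 3 cm over the soil of pots holding 2-leaf seedlings.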
# velvetleaf = test: Test C pre-/postemergence herbicide test; assay type: in vivo, Abutilon theophrasti
# Summary of the method: as §1
# lambsquarters = test: Test C pre-/postemergence herbicide test; assay type: in vivo, Chenopodium album
# Summary of the method: as §1
# corn = test: Test A pre-/postemergence herbicide test; assay type: in vivo, Zea mays; conditions: Postemergence
# Summary of the method: (§3)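 Seeds sown in loam soil/sand blend received a preemergence directed soil spray of test chemical in non-phytotoxic solvent with surfactant; postemergence plants (2–10 cm, one- to two-leaf stage) were sprayed with the same formulation. After about 10 days in greenhouse, injury was rated visually versus untreated controls, 0 (no effect) to 100 (complete control).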
# wheat (winter wheat) = test: Test C pre-/postemergence herbicide test; assay type: in vivo, Triticum aestivum
# Summary of the method: as §1
# morningglory = test: Test C pre-/postemergence herbicide test; assay type: in vivo, Ipomoea coccinea
# Summary of the method: as §1
# sedge, umbrella = test: Test B flooded paddy test; assay type: in vivo, Cyperus difformis; conditions: 500 g ai/ha, Flood; scale of 0 to 100 where 0 is no effect and 100 is complete control
# Summary of the method: as §2
# giant foxtail = test: Test A pre-/postemergence herbicide test; assay type: in vivo, Setaria faberii
# Summary of the method: as §3
# barnyardgrass = test: Test A pre-/postemergence herbicide test; assay type: in vivo, Echinochloa crus-galli
# Summary of the method: as §3
# [1] = Postemergence, 31 g ai/ha, scale 0 to 100 (0 no effect, 100 complete control)
# [2] = Postemergence, 62 g ai/ha, scale 0 (no effect) to 100 (complete control)
# [3] = Postemergence, 250 g ai/ha, scale 0 to 100 (0 no effect, 100 complete control)
# [4] = Preemergence, 31 g ai/ha, scale 0 to 100, 0 is no effect and 100 is complete control
# [5] = Preemergence, 62 g ai/ha, scale 0 to 100 (0 no effect, 100 complete control)
# [6] = Preemergence, 125 g ai/ha, scale 0 to 100 (0 no effect, 100 complete control)
# [7] = Postemergence, 125 g ai/ha, scale 0 to 100 (0 no effect, 100 complete control)
# [8] = 125 g ai/ha, visual rating on 0 to 100 scale (0 no effect, 100 complete control), approx. 10 days
# [9] = 500 g ai/ha, 0 to 100 scale (0 no effect, 100 complete control)
# [10] = Postemergence, 125 g ai/ha, visual rating on 0 to 100 scale (0 no effect, 100 complete control), approx. 10 days
# [11] = Postemergence, 500 g ai/ha, 0 to 100 scale (0 no effect, 100 complete control)
# [12] = Preemergence, 125 g ai/ha, 0 to 100 scale where 0 is no effect and 100 is complete control
# [13] = Preemergence, 500 g ai/ha, visual rating on 0 to 100 scale (0 no effect, 100 complete control)
# [14] = Preemergence, 125 g ai/ha, scale 0 to 100
compound,measurement,setting,value
CN1CC(c2ccc(C(F)(F)F)cc2)C(C(=O)Nc2cccc(F)c2F)C1=O (stereo not drawn) [Compound 306],"Plant response rating, Nutsedge, Yellow","nutsedge, yellow; [1]",0
same,"Plant response rating, Nutsedge, Yellow","nutsedge, yellow; [2]",0
same,"Plant response rating, Nutsedge, Yellow","nutsedge, yellow; [3]",0
same,"Nutsedge, Yellow plant response rating","nutsedge, yellow; [4]",0
same,"Nutsedge, Yellow plant response rating","nutsedge, yellow; [5]",0
same,"Plant response rating, Nutsedge, Yellow","nutsedge, yellow; [6]",0
same,"Plant response rating (scale of 0 to 100), Nutsedge, Yellow","nutsedge, yellow; Preemergence, 250 g ai/ha",10
same,"Plant response rating, Foxtail, Giant","foxtail, giant; [1]",5
same,"Plant response rating, Foxtail, Giant","foxtail, giant; [2]",75
same,"Plant response rating, Foxtail, Giant","foxtail, giant; [7]",60
same,"Plant response rating, Foxtail, Giant","foxtail, giant; [3]",85
same,"Foxtail, Giant plant response rating","foxtail, giant; [4]",90
same,"Foxtail, Giant plant response rating","foxtail, giant; [5]",95
same,"Plant response rating, Foxtail, Giant","foxtail, giant; [6]",95
same,"Plant response rating (scale of 0 to 100), Foxtail, Giant","foxtail, giant; Preemergence, 250 g ai/ha",100
same,"Plant response rating, Rice",rice,50
same,"Plant response rating, Velvetleaf",velvetleaf; [1],0
same,"Plant response rating, Velvetleaf",velvetleaf; [2],10
same,"Plant response rating, Velvetleaf",velvetleaf; [7],50
same,"Plant response rating, Velvetleaf",velvetleaf; [3],65
same,Velvetleaf plant response rating,velvetleaf; [5],60
same,"Plant response rating, Velvetleaf",velvetleaf; [6],60
same,"Plant response rating (scale of 0 to 100), Velvetleaf","velvetleaf; Preemergence, 250 g ai/ha",65
same,"Plant response rating, Lambsquarters",lambsquarters; [1],60
same,"Plant response rating, Lambsquarters",lambsquarters; [2],70
same,"Plant response rating, Lambsquarters",lambsquarters; [7],90
same,"Plant response rating, Lambsquarters",lambsquarters; [3],75
same,Lambsquarters plant response rating,lambsquarters; [4],55
same,Lambsquarters plant response rating,lambsquarters; [5],65
same,"Plant response rating, Lambsquarters",lambsquarters; [6],75
same,"Plant response rating (scale of 0 to 100), Lambsquarters","lambsquarters; Preemergence, 250 g ai/ha",80
same,"Plant response rating, Corn",corn; [8],50
same,"Plant response rating, Corn",corn; [9],70
same,"Plant response rating, Wheat",wheat (winter wheat); [1],0
same,"Plant response rating, Wheat",wheat (winter wheat); [2],0
same,"Plant response rating, Wheat",wheat (winter wheat); [7],0
same,"Plant response rating, Wheat",wheat (winter wheat); [3],0
same,Wheat plant response rating,wheat (winter wheat); [5],50
same,"Plant response rating (scale of 0 to 100), Wheat","wheat (winter wheat); Preemergence, 250 g ai/ha",85
same,"Plant response rating, Morningglory",morningglory; [1],0
same,"Plant response rating, Morningglory",morningglory; [2],35
same,"Plant response rating, Morningglory",morningglory; [7],65
same,"Plant response rating, Morningglory",morningglory; [3],5
same,Morningglory plant response rating,morningglory; [4],0
same,Morningglory plant response rating,morningglory; [5],35
same,"Plant response rating, Morningglory",morningglory; [6],35
same,"Plant response rating (scale of 0 to 100), Morningglory","morningglory; Preemergence, 250 g ai/ha",35
same,"Plant response rating, Sedge, Umbrella","sedge, umbrella",0
same,"Plant response rating, Foxtail, Giant",giant foxtail; [10],80
same,"Plant response rating, Foxtail, Giant",giant foxtail; [11],80
same,"Plant response rating, Foxtail, Giant",giant foxtail; [12],90
same,"Foxtail, Giant plant response rating",giant foxtail; [13],90
same,"Plant response rating, Barnyardgrass",barnyardgrass; [10],80
same,"Plant response rating, Barnyardgrass",barnyardgrass; [11],80
same,"Plant response rating, Barnyardgrass",barnyardgrass; [12],90
same,Barnyardgrass plant response rating,barnyardgrass; [13],90
O=C1NCC(c2cccc(Br)c2)C1C(=O)Nc1ccc(F)c(F)c1F (stereo not drawn) [Compound 310],"Plant response rating, Nutsedge, Yellow","nutsedge, yellow; [1]",0
same,"Plant response rating, Nutsedge, Yellow","nutsedge, yellow; [2]",0
same,"Plant response rating, Nutsedge, Yellow","nutsedge, yellow; [7]",0
same,"Plant response rating, Nutsedge, Yellow","nutsedge, yellow; [3]",25
same,"Nutsedge, Yellow plant response rating","nutsedge, yellow; [4]",0
same,"Nutsedge, Yellow plant response rating","nutsedge, yellow; [5]",0
same,"Plant response rating, Nutsedge, Yellow","nutsedge, yellow; [14]",0
same,"Plant response rating (scale of 0 to 100), Nutsedge, Yellow","nutsedge, yellow; Preemergence, 250 g ai/ha",0
same,"Plant response rating, Foxtail, Giant","foxtail, giant; [1]",0
same,"Plant response rating, Foxtail, Giant","foxtail, giant; [2]",5
same,"Plant response rating, Foxtail, Giant","foxtail, giant; [7]",30
same,"Plant response rating, Foxtail, Giant","foxtail, giant; [3]",70
same,"Foxtail, Giant plant response rating","foxtail, giant; [4]",80
same,"Foxtail, Giant plant response rating","foxtail, giant; [5]",85
same,"Plant response rating, Foxtail, Giant","foxtail, giant; [14]",90
same,"Plant response rating (scale of 0 to 100), Foxtail, Giant","foxtail, giant; Preemergence, 250 g ai/ha",90
same,"Plant response rating, Rice",rice,0
same,"Plant response rating, Velvetleaf",velvetleaf; [1],35
same,"Plant response rating, Velvetleaf",velvetleaf; [2],0
same,"Plant response rating, Velvetleaf",velvetleaf; [7],0
same,"Plant response rating, Velvetleaf",velvetleaf; [3],40
same,Velvetleaf plant response rating,velvetleaf; [5],0
same,"Plant response rating, Velvetleaf",velvetleaf; [14],5
same,"Plant response rating (scale of 0 to 100), Velvetleaf","velvetleaf; Preemergence, 250 g ai/ha",35
same,"Plant response rating, Lambsquarters",lambsquarters; [1],25
same,"Plant response rating, Lambsquarters",lambsquarters; [2],65
same,"Plant response rating, Lambsquarters",lambsquarters; [7],65
same,"Plant response rating, Lambsquarters",lambsquarters; [3],70
same,Lambsquarters plant response rating,lambsquarters; [4],0
same,Lambsquarters plant response rating,lambsquarters; [5],5
same,"Plant response rating, Lambsquarters",lambsquarters; [14],55
same,"Plant response rating (scale of 0 to 100), Lambsquarters","lambsquarters; Preemergence, 250 g ai/ha",80
same,"Plant response rating, Corn",corn; [8],20
same,"Plant response rating, Corn",corn; [9],50
same,"Plant response rating, Wheat",wheat (winter wheat); [1],0
same,"Plant response rating, Wheat",wheat (winter wheat); [2],0
same,"Plant response rating, Wheat",wheat (winter wheat); [7],0
same,"Plant response rating, Wheat",wheat (winter wheat); [3],0
same,Wheat plant response rating,wheat (winter wheat); [5],0
same,"Plant response rating, Wheat",wheat (winter wheat); [14],0
same,"Plant response rating (scale of 0 to 100), Wheat","wheat (winter wheat); Preemergence, 250 g ai/ha",10
same,"Plant response rating, Morningglory",morningglory; [1],10
same,"Plant response rating, Morningglory",morningglory; [2],0
same,"Plant response rating, Morningglory",morningglory; [7],10
same,"Plant response rating, Morningglory",morningglory; [3],70
same,Morningglory plant response rating,morningglory; [4],0
same,Morningglory plant response rating,morningglory; [5],0
same,"Plant response rating, Morningglory",morningglory; [14],5
same,"Plant response rating (scale of 0 to 100), Morningglory","morningglory; Preemergence, 250 g ai/ha",5
same,"Plant response rating, Sedge, Umbrella","sedge, umbrella",0
same,"Plant response rating, Foxtail, Giant",giant foxtail; [10],90
same,"Plant response rating, Foxtail, Giant",giant foxtail; [11],90
same,"Plant response rating, Foxtail, Giant",giant foxtail; [12],90
same,"Foxtail, Giant plant response rating",giant foxtail; [13],90
same,"Plant response rating, Barnyardgrass",barnyardgrass; [10],90
same,"Plant response rating, Barnyardgrass",barnyardgrass; [11],90
same,"Plant response rating, Barnyardgrass",barnyardgrass; [12],90
same,Barnyardgrass plant response rating,barnyardgrass; [13],90
